The nature of the series: Water solubility by quantitative analysis (HPLC). The series is classed as physicochemical. Particulars: for Water solubility (μg/mL, HPLC) 24 hr: comparison of salt forms of Compound 1; for water solubility: quantitative analysis by HPLC, crystalline form of the salt. On the procedure:
(4) Quantitative Analysis (HPLC)
Approximately 26.7 mg of the sample was precisely weighed and placed in a 500 mL volumetric flask. 450 mL of a diluted solution (methanol:purified water=1:1) was added thereto, completely dissolved, and then filled with the diluted solution up to the marked line. HPLC equipment and analysis methods are represented in Table 1 below.
Quantitative analysis was carried out in the same manner as in Example 2.
Various types of salts were prepared. After analyzing characteristics in the same manner as above, the comparisons with potassium salt and methanesulfonic acid salt (mesylate) are represented in Table 4 below.

Molecules are shown by their SMILES.

As to `CC(C)n1nc(Cl)c2cc(COc3ccc4c(c3)CCC(CN3CCC(C(=O)O)CC3)=C4Cl)ccc21` [Free form, 1-[1-Chloro-6-(3-chloro-1-isopropyl-1H-indazol-5-ylmethoxy)-3,4-dihydro-naphthalen-2-ylmethyl]-piperidine-4-carboxylic acid], where the note is “thermodynamic from solid, HPLC quantitation, 24 hr, comparison of salt forms of Compound 1, read-out: Water solubility (μg/mL, HPLC) 24 hr”, the solubility at 24 h was found to be 3.7 µg/mL.
As for `CC(C)n1nc(Cl)c2cc(COc3ccc4c(c3)CCC(CN3CCC(C(=O)[O-])CC3)=C4Cl)ccc21.[K+]` [K salt (1 eq.), potassium salt of 1-[1-chloro-6-(3-chloro-1-isopropyl-1H-indazol-5-ylmethoxy)-3,4-dihydro-naphthalen-2-ylmethyl]-piperidine-4-carboxylic acid], the water solubility turned out to be 33238.5 µg/mL. Also, the “Water solubility (μg/mL, HPLC) 24 hr” value (HPLC quantitation, 24 hr) is 33238.5 µg/mL.
With `CC(C)n1nc(Cl)c2cc(COc3ccc4c(c3)CCC(CN3CCC(C(=O)O)CC3)=C4Cl)ccc21.CS(=O)(=O)O` [Mesylate (1 eq.), methanesulfonic acid salt (mesylate) of 1-[1-chloro-6-(3-chloro-1-isopropyl-1H-indazol-5-ylmethoxy)-3,4-dihydro-naphthalen-2-ylmethyl]-piperidine-4-carboxylic acid], the water solubility was found to be 536.8 µg/mL. Besides, under “HPLC quantitation, 24 hr”, the “Water solubility (μg/mL, HPLC) 24 hr” value was determined as 536.8 µg/mL.

The values above are taken from patent US12661349B1, “Pharmaceutically acceptable salt of sphingosine-1-phosphate receptor agonist, and crystalline form thereof” (LG CHEM, LTD., priority 2021, dated 2026).
